Reference: patent publication EP2881391A1, “Spiroindoline carbocycle derivatives and pharmaceutical compositions thereof” (Bayer Pharma Aktiengesellschaft, priority 2013, dated 2015)

The molecules below were run against T1, human GnRH receptor (Homo sapiens, UniProt P30968) (assay: IP-One HTRF assay (inhibition of GnRH-R activation by buserelin)). Details: IP-One HTRF assay with buserelin (at EC80) stimulation; CHO cells stably expressing human GnRH receptor; tested 20 µM to 1 nM; read-out: Potency IC50.
T1 construct: line established by Prof; Thomas Gudermann; host or cells: CHO cells
T1 sequence (P30968 1-328): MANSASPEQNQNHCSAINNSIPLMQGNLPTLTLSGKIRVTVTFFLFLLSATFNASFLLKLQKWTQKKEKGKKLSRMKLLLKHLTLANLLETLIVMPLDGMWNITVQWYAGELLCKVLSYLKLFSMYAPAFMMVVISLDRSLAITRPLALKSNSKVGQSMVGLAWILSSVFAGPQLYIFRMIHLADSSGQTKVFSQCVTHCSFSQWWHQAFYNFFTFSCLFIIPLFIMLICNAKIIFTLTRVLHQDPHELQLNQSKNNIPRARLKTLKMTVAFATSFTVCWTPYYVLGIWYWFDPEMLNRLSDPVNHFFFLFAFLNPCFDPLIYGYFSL
Format: cell-based
Method in brief: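 CHO cells stably expressing human GnRH-R, pre-incubated 20 min at 22°C with compound (10 concentrations, 20 µM to 1 nM, duplicates), then stimulated 1 h at 37°C with buserelin or LHRH at EC50 or EC80 in pH 7.4 buffer with 50 mM LiCl. IP1 read by HTRF 665/620 nm ratio; IC50 by 4-parameter fit.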

**Q.** For `Cc1cccc(NC(=O)c2ccc3c(c2)C2(CCC(O)(C(F)(F)F)CC2)C(C2CC2)N3S(=O)(=O)c2ccc(F)cc2)c1` (centres unmarked) [Example 24, 2'-cyclopropyl-1'-[(4-fluorophenyl)sulfonyl]-4-hydroxy-N-(3-methylphenyl)-4-(trifluoromethyl)-1',2'-dihydrospiro[cyclohexane-1,3'-indole]-5'-carboxamide], which IC50 is on record?
**A.** 796 nM

**Q.** `O=C1CCC2(CC1)c1cc(C(=O)NCc3ncc(C(F)(F)F)cc3Cl)ccc1N(S(=O)(=O)c1ccc(F)cc1)C2C1CC1` (centres unmarked) [Example 8, N-{[3-chloro-5-(trifluoromethyl)pyridin-2-yl]methyl}-2'-cyclopropyl-1'-[(4-fluorophenyl)sulfonyl]-4-oxo-1',2'-dihydrospiro[cyclohexane-1,3'-indole]-5'-carboxamide] was tested. Which IC50 did it give?
**A.** 57.4 nM

**Q.** `CC(C)=CCC1N(S(=O)(=O)c2ccc(F)cc2)c2ccc(C(=O)Nc3cc[nH]n3)cc2C12CCC(O)(C(F)(F)F)CC2` (centres unmarked) [Example 12, 1'-[(4-fluorophenyl)sulfonyl]-4-hydroxy-2'-(3-methylbut-2-en-1-yl)-N-(1H-pyrazol-3-yl)-4-(trifluoromethyl)-1',2'-dihydrospiro[cyclohexane-1,3'-indole]-5'-carboxamide] was tested. Which IC50 did it give?
**A.** 1420 nM

**Q.** How did the IC50 turn out when `O=C(NCc1ccccc1Cl)c1ccc2c(c1)C1(CCC(=NO)CC1)C(C1CC1)N2S(=O)(=O)c1ccc(F)cc1` (centres unmarked) [Example 5, N-(2-chlorobenzyl)-2'-cyclopropyl-1'-[(4-fluorophenyl)sulfonyl]-4-(hydroxyimino)-1',2'-dihydrospiro[cyclohexane-1,3'-indole]-5'-carboxamide] was run?
**A.** 65.7 nM

**Q.** For `CC(C)=CCC1N(S(=O)(=O)c2ccc(F)cc2)c2ccc(C(=O)Nc3cncc(C)c3)cc2C12CCC(O)(C(F)(F)F)CC2` (centres unmarked) [Example 18, 1'-[(4-fluorophenyl)sulfonyl]-4-hydroxy-2'-(3-methylbut-2-en-1-yl)-N-(5-methylpyridin-3-yl)-4-(trifluoromethyl)-1',2'-dihydrospiro[cyclohexane-1,3'-indole]-5'-carboxamide], which IC50 is on record?
**A.** 1840 nM

**Q.** How did the IC50 turn out when `COc1cccc(S(=O)(=O)N2c3ccc(C(=O)Nc4cc[nH]n4)cc3C3(CCC(O)(C(F)(F)F)CC3)C2C2CC2)c1` (centres unmarked) [Example 33, 2'-cyclopropyl-4-hydroxy-1'-[(3-methoxyphenyl)su Ifonyl]-N-(1H-pyrazol-3-yl)-4-(trifluoromethyl)-1',2'-dihydrospiro[cyclohexane-1,3'-indole]-5'-carboxamide] was run?
**A.** 2230 nM

**Q.** For `O=C(NCc1ccccc1Cl)c1ccc2c(c1)C1(CCC(O)(C(F)(F)F)CC1)C(C1CC1)N2S(=O)(=O)c1ccc(F)cc1` (centres unmarked) [Example 62, N-(2-chlorobenzyl)-2'-cyclopropyl-1'-[(4-fluorophenyl)sulfonyl]-4-hydroxy-4-(trifluoromethyl)-1',2'-dihydrospiro[cyclohexane-1,3'-indole]-5'-carboxamide], which IC50 is on record?
**A.** 253 nM

**Q.** Which IC50 does the source give for `O=C(NCc1ncc(C(F)(F)F)cc1Cl)c1ccc2c(c1)C1(CCC(O)CC1)C(C1CC1)N2S(=O)(=O)c1ccc(F)cc1` (centres unmarked) [Example 7, N-{[3-chloro-5-(trifluoromethyl)pyridin-2-yl]methyl}-2'-cyclopropyl-1'-[(4-fluorophenyl)sulfonyl]-4-hydroxy-1',2'-dihydrospiro[cyclohexane-1,3'-indole]-5'-carboxamide] here?
**A.** 52.1 nM

**Q.** `CC1(O)CCC2(CC1)c1cc(C(=O)NCc3ccccc3Cl)ccc1N(S(=O)(=O)c1ccc(F)cc1)C2C1CC1` (centres unmarked) [Example 4, N-(2-chlorobenzyl)-2'-cyclopropyl-1'-[(4-fluorophenyl)sulfonyl]-4-hydroxy-4-methyl-1',2'-dihydrospiro[cyclohexane-1,3'-indole]-5'-carboxamide] was tested. Which IC50 did it give?
**A.** 73.3 nM

**Q.** For `COC(=O)c1cccc(S(=O)(=O)N2c3ccc(C(=O)NCc4ncc(C(F)(F)F)cc4F)cc3C3(CCC(O)(C(F)(F)F)CC3)C2C2CC2)c1` (centres unmarked) [Example 28, methyl 3-{[2'-cyclopropyl-5'-({[3-fluoro-5-(trifluoromethyl)pyridin-2-yl]methyl}carbamoyl)-4-hydroxy-4-(trifluoromethyl)spiro[cyclohexane-1,3'-indol]-1'(2'H)-yl]sulfonyl}benzoate], which IC50 is on record?
**A.** 1780 nM

**Q.** For `CC(C)=CCC1N(S(=O)(=O)c2ccc(F)cc2)c2ccc(C(=O)Nc3cccc(C(=O)O)c3)cc2C12CCC(O)(C(F)(F)F)CC2` (centres unmarked) [Example 14, 3-[({1'-[(4-fluorophenyl)sulfonyl]-4-hydroxy-2'-(3-methylbut-2-en-1-yl)-4-(trifluoromethyl)-1',2'-dihydrospiro[cyclohexane-1,3'-indol]-5'-yl}carbonyl)amino] benzoic acid], which IC50 is on record?
**A.** 639 nM

**Q.** `NS(=O)(=O)c1cccc(NC(=O)c2ccc3c(c2)C2(CCC(O)(C(F)(F)F)CC2)C(C2CC2)N3S(=O)(=O)c2ccc(F)cc2)c1` (centres unmarked) [Example 47, 2'-cyclopropyl-1 [(4-fluorophenyl)sulfonyl]-4-hydroxy-N-(3-sulfamoylphenyl)-4-(trifluoromethyl)-1',2'-dihydrospiro[cyclohexane-1,3'-indole]-5'-carboxamide] was tested. Which IC50 did it give?
**A.** 618 nM

**Q.** With `CC(C)=CCC1N(S(=O)(=O)c2ccc(F)cc2)c2ccc(C(=O)Nc3cccc(S(N)(=O)=O)c3)cc2C12CCC(O)(C(F)(F)F)CC2` (centres unmarked) [Example 16, 1'-[(4-fluorophenyl)sulfonyl]-4-hydroxy-2'-(3-methylbut-2-en-1-yl)-N-(3-sulfamoylphenyl)-4-(trifluoromethyl)-1',2'-dihydrospiro[cyclohexane-1,3'-indole]-5'-carboxamide] as the molecule, how does the IC50 read?
**A.** 1850 nM

**Q.** `O=C(Nc1ccon1)c1ccc2c(c1)C1(CCC(O)(C(F)(F)F)CC1)C(C1CC1)N2S(=O)(=O)c1ccc(F)cc1` (centres unmarked) [Example 56, 2'-cyclopropyl-1' [(4-fluorophenyl)sulfonyl]-4-hydroxy-N-(1,2-oxazol-3-yl)-4-(trifluoromethyl)-1',2'-dihydrospiro[cyclohexane-1,3'-indole]-5'-carboxamide] was tested. Which IC50 did it give?
**A.** 286 nM

**Q.** With `COc1cccc(S(=O)(=O)N2c3ccc(C(=O)NCc4ccccc4Cl)cc3C3(CCC(O)(C(F)(F)F)CC3)C2C2CC2)c1` (centres unmarked) [Example 43, N-(2-chlorobenzyl)-2'-cyclopropyl-4-hydroxy-1'-[(3-methoxyphenyl)su Ifonyl]-4-(trifluoromethyl)-1',2'-dihydrospiro[cyclohexane-1,3'-indole]-5'-carboxamide] as the molecule, how does the IC50 read?
**A.** 621 nM

**Q.** `O=C(NCc1ncc(F)cc1Cl)c1ccc2c(c1)C1(CCC(O)(C(F)(F)F)CC1)C(C1CC1)N2S(=O)(=O)c1ccc(F)cc1` (centres unmarked) [Example 64, N-[(3-chloro-5-fluoropyridin-2-yl)methyl]-2'-cyclopropyl-1'-[(4-fluorophenyl)sulfonyl]-4-hydroxy-4-(trifluoromethyl)-1',2'-dihydrospiro[cyclohexane-1,3'-indole]-5'-carboxamide] was tested. Which IC50 did it give?
**A.** 519 nM

**Q.** Which IC50 does the source give for `O=C1CCC2(CC1)c1cc(C(=O)NCc3ccccc3Cl)ccc1N(S(=O)(=O)c1ccc(F)cc1)C2C1CC1` (single isomer, unassigned) [Example 3-1] here?
**A.** 41.3 nM

**Q.** How did the IC50 turn out when `CS(=O)(=O)c1cccc(NC(=O)c2ccc3c(c2)C2(CCC(O)(C(F)(F)F)CC2)C(C2CC2)N3S(=O)(=O)c2ccc(F)cc2)c1` (centres unmarked) [Example 46, 2'-cyclopropyl-1'-[(4-fluorophenyl)sulfonyl]-4-hydroxy-N-[3-(methylsulfonyl)phenyl]-4-(trifluoromethyl)-1',2'-dihydrospiro[cyclohexane-1,3'-indole]-5'-carboxamide] was run?
**A.** 540 nM

**Q.** Which IC50 does the source give for `O=C(Nc1ccon1)c1ccc2c(c1)C1(CCC(O)(C(F)(F)F)CC1)C(C1CC1)N2S(=O)(=O)c1ccc(F)cc1` (single isomer, unassigned) [Example 56-1] here?
**A.** 215 nM

**Q.** With `COc1cccc(S(=O)(=O)N2c3ccc(C(=O)NCc4ncccc4C(F)(F)F)cc3C3(CCC(O)(C(F)(F)F)CC3)C2C2CC2)c1` (centres unmarked) [Example 44, 2'-cyclopropyl-4-hydroxy-1'-[(3-methoxyphenyl)su Ifonyl]-4-(trifluoromethyl)-N-{[3-(trifluoromethyl)pyridin-2-yl]methyl}-1',2'-dihydrospiro[cyclohexane-1,3'-indole]-5'-carboxamide] as the molecule, how does the IC50 read?
**A.** 403 nM

**Q.** `O=C(NCc1ncccc1C(F)(F)F)c1ccc2c(c1)C1(CCC(O)(C(F)(F)F)CC1)C(C1CC1)N2S(=O)(=O)c1cccc(C(=O)N2CCC2)c1` (centres unmarked) [Example 66, 1'-{[3-(azetidin-1-ylcarbonyl)phenyl]sulfonyl}-2'-cyclopropyl-4-hydroxy-4-(trifluoromethyl)-N-{[3-(trifluoromethyl)pyridin-2-yl]methyl}-1',2'-dihydrospiro[cyclohexane-1,3'-indole]-5'-carboxamide] was tested. Which IC50 did it give?
**A.** 2180 nM

**Q.** `CC(C)=CCC1N(S(=O)(=O)c2ccc(F)cc2)c2ccc(C(=O)Nc3cccc(S(C)(=O)=O)c3)cc2C12CCC(O)(C(F)(F)F)CC2` (centres unmarked) [Example 15, 1'-[(4-fluorophenyl)sulfonyl]-4-hydroxy-2'-(3-methylbut-2-en-1-yl)-N-[3-(methylsulfonyl)phenyl]-4-(trifluoromethyl)-1',2'-dihydrospiro[cyclohexane-1,3'-indole]-5'-carboxamide] was tested. Which IC50 did it give?
**A.** 1280 nM

**Q.** With `COc1cccc(S(=O)(=O)N2c3ccc(C(=O)NCC4CCCCC4)cc3C3(CCC(O)(C(F)(F)F)CC3)C2C2CC2)c1` (centres unmarked) [Example 42, N-(cyclohexylmethyl) -2'-cyclopropyl-4-hydroxy-1'-[(3-methoxyphenyl)su Ifonyl]-4-(trifluoromethyl)-1',2'-dihydrospiro[cyclohexane-1,3'-indole]-5'-carboxamide] as the molecule, how does the IC50 read?
**A.** 1880 nM
